Measured values: PMC7727793, “Aggregation Behavior, Antibacterial Activity and Biocompatibility of Catanionic Assemblies Based on Amino Acid-Derived Surfactants” (International Journal of Molecular Sciences, 2020)

What was measured:
[1] = set-up: method as in PMID 17319702; details: cited from earlier work
[2] = test system: all microorganisms tested; experiment: Broth microdilution MIC, statement for all microorganisms tested; type: cell-based; details: for Antibacterial activity (in words): tested microorganisms
Description: (§1) Antibacterial assays were conducted in vitro using the broth microdilution method. The minimum inhibitory concentration (MIC) is the smallest concentration of antibacterial agent at which bacterial growth is not observed. MIC values were determined for 4 Gram-positive bacteria (methicillin-resistant Staphylococcus aureus ATCC 43300 (MRSA), Bacillus subtilis ATCC 6633, Kocuria rhizophila 9341, Staphylococcus epidermidis ATCC 12228), 3 Gram-negative bacteria (Klebsiella pneumoniae ATCC 4532, Pseudomonas aeruginosa ATCC 27853, Escherichia coli ATCC 8739) and the fungal strain, Candida albicans ATCC 10231. Frozen stocks of bacteria were incubated on Muller Hinton agar plates for 24 h at 37 °C. From this culture, a bacterial suspension of 1 × 10^6 colony forming units CFU/mL was prepared in MHB (pH = 7.3). Two dilutions of pure surfactants and their binary mixtures were prepared in MH broth to obtain a final concentration ranging from 4 to 454 μM in the microtiter plates.
(§2) Then, 10 μL of nutrient broth culture of each microorganism was added to achieve a final density of ca. 5 × 10^5 CFU/mL. The cultures were incubated for 24 h at 37 °C. Every assay was repeated three times.

A431 cell line = experiment: NRU cell viability assay; type: cell-based; details: Homo sapiens, A-431, 24 h
Description: (§3) The murine Swiss albino fibroblast (3T3), the squamous carcinoma (A431), the immortal human keratinocyte (HaCaT) and the human epithelial carcinoma (HeLa) cell lines were obtained from Celltec UB. Cells were grown in Dulbecco’s Modified Eagle’s Medium (DMEM) (4.5 g/L glucose) supplemented with 10% (v/v) fetal bovine serum (FBS), 1% (v/v) L-glutamine solution (200 mM) and 1% (v/v) penicillin-streptomycin solution (10,000 U/mL penicillin and 10 mg/mL streptomycin) at 37 °C and 5% CO2 (CO2 Incubator Nuaire, Plymouth, MN, USA). All the biological materials were purchased from Lonza (Verviers, Belgium). Cells were cultured in 75 cm^2 culture flasks (TPP, Trasadingen, Switzerland) and were routinely split using trypsin-EDTA (ethylenediaminetetraacetate) solution (170,000 U/L trypsin and 0.2 g/L EDTA) (Lonza, Verviers, Belgium) when cells are approximately 80% confluent. 3T3 and HaCaT cells (1 × 10^5 cells/ mL) and HeLa and A431 cells (5 × 10^4 cells/mL) were grown at the defined densities into the central 60 wells of a 96-well plate. Cells were incubated for 24 h under 5% CO2 at 37 °C. […] Agitation, determination of the absorbance of the extracted solution and effect of each treatment in comparison with control cells were analogous of those described in the case of the MTT method.

HeLa cell line = experiment: NRU cell viability assay; type: cell-based; details: Homo sapiens, 24 h
Description: as §3

[3] = Pyrene fluorescence (II/IIII ratio) CMC determination; type: physicochemical; details: pyrene probe, 25 °C; estimated error 10%
Description: Fluorescence measurements were carried out using a Shimadzu RF 540 spectrofluorometer (Shimadzu, Kyoto, Japan). Pyrene (Sigma-Aldrich, San Luis, MO, USA) was utilized as a fluorescence probe at 25 °C. From a 5 mM solution of catanionic formulations prepared in a pyrene aqueous solution (10^−6 M), different dilutions were prepared. The fluorescence emission spectra of these binary mixtures were acquired from 340 to 450 nm after excitation at 332 nm. The ratio of the first to the third vibronic peaks (II/IIII) in the emission spectra of pyrene is sensitive to the polarity of the microenvironment and the CMC can be calculated from plots of II/IIII as a function of surfactant concentration.

[4] = test system: Escherichia coli ATCC 25922; experiment: Broth microdilution MIC; type: cell-based; details: 24 h, 37 °C, total surfactant concentration
[5] = type: physicochemical
Description: To check whether there was a pKa shift, we titrated the surfactant at a concentration below the CMC. The titration curve is shown in Supplementary Figure S1, where 10 mL of 1.5 mM surfactant was titrated with 3 mM NaOH.
The titration was followed using a glass electrode Orion coupled with an Orion Versastar reader (Thermo Scientific). […] 16% carbonation was determined. using Equation (1), which is derived making use of the charge and mass balances together with the acid constants of H2CO3, pK1CO2 = 6.35, pK2CO2 = 10.25 and water dissociation constant pKw = 14. (1) V = −V0Ca10^pKa−pH/1+10^pKa−pH−V0Ca+V0(1/10^pH−10^pH+pKw)/cb(1−α(1−1/1+10^pH+pK1CO2+10^2pH+pK2CO2))+(1/10^pH−10^pH+pKw) where V0 is the titrated solution initial volume, L is concentration, pKa is the searched acid constant, pkw is the minus logarithm of the water dissociation constant, Cb is the titrant concentration, α is the fraction of carbonated titrant, pK1CO2 is the first dissociation constant of CO2 and pK2CO2 is the second dissociation constant of CO2.

[6] = test system: Klebsiella pneumoniae ATCC 13883; experiment: Broth microdilution MIC; type: cell-based; details: 24 h, 37 °C, total surfactant concentration
[7] = test system: Pseudomonas aeruginosa ATCC 27853; experiment: Broth microdilution MIC; type: cell-based; details: 24 h, 37 °C, total surfactant concentration
Description: as §1, §2

[8] = test system: Candida albicans ATCC 10231; experiment: Broth microdilution MIC; type: cell-based; details: 24 h, 37 °C, total surfactant concentration
Description: as §1, §2

[9] = test system: Staphylococcus epidermidis ATCC 12228; experiment: Broth microdilution MIC; type: cell-based; details: 24 h, 37 °C, total surfactant concentration
Description: as §1, §2

[10] = test system: Bacillus subtilis ATCC 6633; experiment: Broth microdilution MIC; type: cell-based; details: 24 h, 37 °C, total surfactant concentration
Description: as §1, §2

[11] = test system: Kocuria rhizophila ATCC 9341; experiment: Broth microdilution MIC; type: cell-based; details: 24 h, 37 °C, total surfactant concentration
Description: as §1, §2

[12] = 10 mM NaCl CO2 saturated solution

| Compound | Concentration at which surface tension stabilizes [1, 12] | Limiting surface tension [1, 12] | Surface tension at CMC ([1]; basic conditions) | CMC ([1]; basic media) | MIC ([2]; read-out: MIC for all microorganisms tested) | Antibacterial activity (in words) [2] | IC50 (A431 cell line) | IC50 (HeLa cell line) | CMC obtained by Fluorescence (CMCF) [3] | MIC [4] | pKa [5] | pKa calculated from the concentration and the initial solution pH [5] | pKa shift versus literature value for the histidine secondary amine [5] | MIC [6] | MIC [7] | MIC [8] | MIC [9] | MIC [10] | MIC [11] |
| --- | --- | --- | --- | --- | --- | --- | --- | --- | --- | --- | --- | --- | --- | --- | --- | --- | --- | --- | --- |
| CCCCCCCCCCCCCC(=O)O [Sodium myristate, sodium myristate] | around 0.3 mM | about 25 mNm^−1 | about 40 mNm^−1 | 3 mM | > 113 µM | did not show activity | > 50 µM | > 50 µM | 0.90 mM |  |  |  |  |  |  |  |  |  |  |
| N(π),N(τ)-bis(methyl)-L-Histidine tetradecyl amide [DMHNHC14] |  |  |  |  |  | broad spectrum of antibacterial activity |  |  | 3.8 mM | 113 µM | 5.7-5.9 | 5.4 | about 3.3 units | 113 µM | 227 µM | 28 µM | 14 µM | 28 µM | 28 µM |
